Measurements published in patent EP4353088A1, “COMPOSITIONS OR COMBINED PREPARATIONS OF ESSENTIAL OILS AND L-CARNITINE” (Servicio Andaluz de Salud, priority 2022, dated 2024).

Legend:
[1] = tested on: gut microbiota; assay: Fecal microbiota analysis by 16S rRNA gene sequencing in humanized gnotobiotic mice; assay type: in vivo
Procedure: A humanized gnotobiotic mouse model was developed through the fecal microbiota transplantation of human feces into germ-free mice. Prior to the transplantation procedure, 18-week-old mice (n = 40) were orally treated by gavage with 200 μL of antibiotic cocktail composed of vancomycin (5 mg mL^-1), neomycin, metronidazole and ampicillin 155 (10 mg mL^-1) in order to deplete the bacterial content. An all-bacteria qPCR was performed with universal 16S rRNA primers that detect a broad range of bacterial species to verify complete absence of detectable bacteria in the feces. Then, mice received a fecal microbiota transplantation from a selection of patients to recolonize the gastrointestinal tract, as previously described. Specifically, three patients with IHD, T2DM and high plasma levels of TMAO were eligible for feces donation. Fresh fecal samples were suspended in sterile phosphate buffered saline (PBS) and glycerol was added at 10 % (v/v) final concentration; then, samples were aliquoted into cryotubes and immediately stored at -80 °C. At the moment of the transplantation, aliquot samples from these patients were thawed in ice and mixed in equal quantities as a sample pool to guarantee that every mouse received a similar microbiota load. The sample pool was centrifuged for 2 minutes at 2,800 xg, and the supernatant was transferred to mice by oral gavage for three consecutive days according to previously published protocols. Mice were moved to clean cages every two days to minimize the coprophagia and to prevent reinoculation from old feces. […]

[2] = tested on: cytokines and chemokines; assay: Cytokines and chemokines in plasma (ProcartaPlex 26-Plex); assay type: in vivo, mice; conditions: L-carnitine (0.02%, w/v) in drinking water for 40 days
Procedure: (§1) A humanized gnotobiotic mouse model was developed through the fecal microbiota transplantation of human feces into germ-free mice. Prior to the transplantation procedure, 18-week-old mice (n = 40) were orally treated by gavage with 200 µL of antibiotic cocktail composed of vancomycin (5 mg mL^-1), neomycin, metronidazole and ampicillin 155 (10 mg mL^-1) in order to deplete the bacterial content. An all-bacteria qPCR was performed with universal 16S rRNA primers that detect a broad range of bacterial species to verify complete absence of detectable bacteria in the feces.
(§2) Then, mice received a fecal microbiota transplantation from a selection of patients to recolonize the gastrointestinal tract, as previously described. Specifically, three patients with IHD, T2DM and high plasma levels of TMAO were eligible for feces donation. Fresh fecal samples were suspended in sterile phosphate buffered saline (PBS) and glycerol was added at 10 % (v/v) final concentration; then, samples were aliquoted into cryotubes and immediately stored at -80 °C. At the moment of the transplantation, aliquot samples from these patients were thawed in ice and mixed in equal quantities as a sample pool to guarantee that every mouse received a similar microbiota load. […]

[3] = tested on: cardiovascular disease markers; assay: Cardiovascular markers in plasma (Mouse CVD Magnetic Bead Panel 1); assay type: in vivo, mice; conditions: L-carnitine (0.02%, w/v) in drinking water for 40 days; carnitine group vs control group
Procedure: as §1, §2

[4] = tested on: protein carbonyls and pentosidine; assay: Protein carbonyls (AAS, GGS) and pentosidine in plasma (fluorescent HPLC); assay type: in vivo, mice; conditions: L-carnitine (0.02%, w/v) in drinking water for 40 days; carnitine group vs control group
Procedure: as §1
as §2, with “load. The sample pool was centrifuged for 2 minutes at 2,800 xg, and the supernatant was transferred to mice by oral gavage for three consecutive days according to previously published protocols. Mice were moved to clean cages every two days to minimize the coprophagia and to prevent reinoculation from old feces.” for “load.”

[5] = tested on: TMA and TMAO; assay: L-carnitine, TMA and TMAO levels in plasma (LC-MS) of humanized gnotobiotic mice; assay type: in vivo; conditions: L-carnitine (0.02%, w/v) in drinking water for 40 days; carnitine group vs control group
Procedure: as §1
as §2, with “load. The sample pool was centrifuged for 2 minutes at 2,800 xg, and the supernatant was transferred to mice by oral gavage for three consecutive days according to previously published protocols. Mice were moved to clean cages every two days to minimize the coprophagia and to prevent reinoculation from old feces.” for “load.”

[6] = tested on: SCFA species; assay: SCFA species in feces (GC-FID) of humanized gnotobiotic mice; assay type: in vivo; conditions: L-carnitine (0.02%, w/v) in drinking water for 40 days; carnitine group vs control group
Procedure: as §1, §2

[7] = genus level, fecal samples, among control, carnitine, savory, parsley and rosemary groups, 40 days

## C[N+](C)(C)C[C@H](O)CC(=O)[O-] [carnitine, L-carnitine]
[1]; L-carnitine (0.02%, w/v) in drinking water for 40 days, carnitine group vs control group
  relative abundance at the family and genus levels: no differences
[1]; [7]
  Chao1 index (alpha diversity): no significant differences
  Shannon index (alpha diversity): no significant differences
[2]; carnitine group vs control group
  plasma IFNγ levels: significant increase
[2]; vs control group
  plasma CXCL10 levels: significant increase
[3]
  plasma cardiovascular disease markers (Se-selectin, sICAM-1, Precam-1, sP-selectin, PAI-1 and thrombomodulin): no significant differences
[4]
  plasma levels of AAS: no significant effects
  plasma levels of GGS: no significant effects
  plasma pentosidine levels: no differences
[5]
  plasma L-carnitine levels: significant increase
  plasma TMA levels: significant increase
  plasma TMAO levels: no significant differences
[6]
  fecal levels of SCFA species (acetic, butyric and propionic acids): no significant differences
